{"source": "paper PMC11413853", "about": "“Discovery of VU6007496: Challenges in the Development of an M1 Positive Allosteric Modulator Backup Candidate” (ACS Chemical Neuroscience, 2024)", "key": {"Dopamine D2S": {"tested_on": "Dopamine D2S", "experiment": "Eurofins radioligand binding", "set-up": "species or system Human", "details": "specific binding"}, "[1]": {"tested_on": "Nicotinic Acetylcholine α3β4", "experiment": "Eurofins radioligand binding", "set-up": "species or system Human", "details": "specific binding"}, "hCav3.2": {"tested_on": "T1, hCav3.2", "T1 construct": "Charles River", "experiment": "Ion channel current (Charles River Study 200609.WVN)", "type": "cell-based, human", "details": "10 μM; n 4", "from_the_text": "(§1) Table S2. Effects of VU6007496 on Ion Channel Current (Charles River Study 200609.WVN)\n(§2) Ion Channel Conc Mean % Standard Standard n Individual Data\n(§3) (μM) Inhibition Deviation Error Points (% Inhibition)"}, "hNav1.5 (Tonic)": {"tested_on": "T2, hNav1.5 (Tonic)", "T2 construct": "Charles River Study 200609.WVN", "experiment": "Ion channel current (Charles River Study 200609.WVN)", "type": "cell-based, human", "details": "10 μM, n 4", "from_the_text": "as §1, §2, §3"}, "hKv1.3": {"tested_on": "T3, hKv1.3", "T3 construct": "Charles River", "experiment": "Ion channel current (Charles River Study 200609.WVN)", "type": "cell-based, human", "details": "10 μM; n 4", "from_the_text": "as §1, §2, §3"}, "hKv1.5": {"tested_on": "T4, hKv1.5", "T4 construct": "Charles River", "experiment": "Ion channel current (Charles River Study 200609.WVN)", "type": "cell-based, human", "details": "10 μM; n 3", "from_the_text": "as §1, §2, §3"}, "hNav1.5 (Phasic)": {"tested_on": "T5, hNav1.5 (Phasic)", "T5 construct": "Charles River Study 200609.WVN", "experiment": "Ion channel current (Charles River Study 200609.WVN)", "type": "cell-based, human", "details": "10 μM, n 4", "from_the_text": "as §1, §2, §3"}, "Interleukin IL-1 R1": {"tested_on": "Interleukin IL-1 R1", "experiment": "Eurofins radioligand binding", "set-up": "species or system Human", "details": "specific binding"}, "rCYP3A4": {"tested_on": "rCYP3A4", "experiment": "Substrate depletion with recombinant human CYPs, rCYP3A4", "type": "in vitro ADME", "from_the_text": "To advance 11 as a candidate and into IND-enabling studies, we next needed to better understand its CYP profile to minimize drug–drug interactions in the clinic. […] We were pleased to see the contribution of another CYP beyond 3A4 for the metabolism of 11.[21] In parallel, we investigated the ability of PAM 11 to induce the expression of CYP450s (measuring mRNA) in cryopreserved human hepatocytes from three separate donors."}}}
{"smiles": "Cn1ccc(-c2ccc(Cc3cc(C(=O)NC4CCOCC4)nc4ccn(C)c34)cc2)n1", "note": "[compound 11]", "values": [{"measurement": "% Inhibition at 10 µM", "setting": "Dopamine D2S", "result": 5, "unit": "%"}, {"measurement": "% Inhibition at 10 µM", "setting": "[1]", "result": 6, "unit": "%"}, {"measurement": "Mean % Inhibition", "setting": "hCav3.2", "result": 4.2, "unit": "%"}, {"measurement": "Mean % Inhibition", "setting": "hNav1.5 (Tonic)", "result": 3.9, "unit": "%"}, {"measurement": "Mean % Inhibition", "setting": "hKv1.3", "result": 16.5, "unit": "%"}, {"measurement": "Mean % Inhibition", "setting": "hKv1.5", "result": 8.7, "unit": "%"}, {"measurement": "Mean % Inhibition", "setting": "hNav1.5 (Phasic)", "result": 11.4, "unit": "%"}, {"measurement": "% Inhibition at 10 µM", "setting": "Interleukin IL-1 R1", "result": 10, "unit": "%"}, {"measurement": "share of hepatic CYP-mediated clearance, rCYP3A4", "setting": "rCYP3A4", "result": 97.6, "unit": "%"}]}
